From patent US20250205200A1, “5-METHOXY-N,N-[…][…] THE TREATMENT OF […]” (GH RESEARCH IRELAND LIMITED, priority 2022, published 2025)

Test system: patients with postpartum depression (PPD)
Assay: Clinical trial of inhaled 5-MeO-DMT (individualized dosing regimen) in postpartum depression; one patient, 6 mg then 12 mg
Details: n=1; for MADRS Concentration Difficulties improvement / MADRS Concentration Difficulties score / MADRS Reduced appetite improvement / MADRS Reduced appetite score / MADRS Suicidal Thoughts improvement / MADRS Suicidal Thoughts score: baseline 0; for MADRS Inability to Feel improvement / MADRS Inability to Feel score / MADRS Lassitude improvement / MADRS Lassitude score: baseline 3; for MADRS Pessimistic Thoughts improvement / MADRS Pessimistic Thoughts score / MADRS Reported sadness improvement / MADRS Reported sadness score: baseline 4
Method: The single-arm, open-label clinical trial will involve 15 adult female patients with clinically diagnosed postpartum depression (PPD).
The second dose (12 mg) will only be administered if: • a. […] The 6 mg dose was safe and well-tolerated according to the investigator, • c. Any psychoactive effects (PsE) of the prior dose have subsided, and • d. Pre-dose vital parameters and forced expiratory volume in one second (FEV1) are in normal range, or if outside of the normal range, are not clinically significant according to the investigator. • 3. Similarly, a third dose (18 mg) will only be administered if: • a. […] The 12 mg dose was safe and well-tolerated according to the investigator, and • c. Any PsE of the prior dose have subsided, and • d. Pre-dose vital parameters and forced expiratory volume in one second (FEV1) are in normal range, or if outside of the normal range, are not clinically significant according to the investigator.
The patients will be assessed for a peak psychedelic experience (based on a patient-scored visual analogue scale, the PE scale), sedation, and other endpoints after dosing.
Follow-up visits are planned for Day 1, and Day 7 after the dosing day.
The following criteria must be met by all patients considered for clinical trial participation: • 1. Is female and in the age range between 18 and 45 years (inclusive) at screening. • 2. Has a body mass index (BMI) in the range of 18.5 and 35 kg/m^2 (inclusive) at screening. • 3. Meets the trial criteria for PPD as assessed by a trial psychiatrist or registered psychologist: • a. Diagnosis of Major Depressive Disorder without psychotic features, confirmed by the Mini-International Neuropsychiatric Interview (MINI), with peri-partum onset that began no earlier than gestation and no later than the first 4 weeks postpartum. • b. Has a Montgomery-Åsberg Depression Rating Scale (MADRS) total score of equal to or greater than 28 at screening and pre-dose on Day 0. • 6. […] Patients must have a negative pregnancy test at screening and on the pre-test day (Day −1). • 5. Is willing to delay start of other antidepressant or anxiety medication until after the end of the trial at Day 7 and agrees to keep any psychotherapy unchanged during the trial.
A potential patient who meets any of the following key exclusion criteria will be excluded from participation in this trial: • 1. Has, based on history, psychiatric assessment, and evaluation of the MINI, a current or prior diagnosis of bipolar disorder, a manic or hypomanic episode, a psychotic disorder, Major Depressive Disorder (MDD) or other mood disorder with psychotic features, obsessive compulsive disorder, post-traumatic stress disorder (PTSD), autism spectrum disorder, borderline personality disorder, schizophrenia, delusional disorder, paranoid personality disorder, schizoaffective disorder, clinically significant intellectual disability, or any other psychiatric comorbidity that renders the patient unsuitable for the trial according to the investigator's judgment. • 2. Has one or more first or second degree relatives with a current or previously diagnosed bipolar disorder, psychotic disorder or other mood disorder (including MDD) with psychotic features. • 3. Is in the judgement of a trial psychiatrist or registered psychologist, at significant risk for suicide based on history, psychiatric assessment, and evaluation of suicidal ideation and suicidal behaviour based on the Columbia-Suicide Severity Rating Scale (C-SSRS). • 4. Has taken anti-depressive medication within 14 days or 5 half-lives (whichever is longer) prior to dosing (exception: within the last 5 weeks in the case of fluoxetine). • 5.

COc1ccc2[nH]cc(CCN(C)C)c2c1 [5-MeO-DMT]
Adverse events (cramping left abdominal pain and headache, Day 0): mild, short-lasting and resolved spontaneously
Criteria for MADRS response (at least 50% improvement) and MADRS remission (total score <=10): fulfilled standard criteria
ECG (3 hours), safety laboratory analyses (7 days), CADSS (3 hours, 1 day, 7 days): unremarkable
Tolerability of IDR (6 mg followed by 12 mg, inhalation): well tolerated
Tolerability of the inhalation procedure: well tolerated with no inhalation-related adverse events
MADRS Concentration Difficulties improvement (2 hr): 0
MADRS Concentration Difficulties score (2 hr): 0
MADRS Reduced appetite improvement (2 hr): 0
MADRS Reduced appetite score (2 hr): 0
MADRS Suicidal Thoughts improvement (2 hr): 0
MADRS Suicidal Thoughts score (2 hr): 0
MADRS Inability to Feel improvement (2 hr): 3
MADRS Inability to Feel score (2 hr): 0
MADRS Lassitude improvement (2 hr): 3
MADRS Lassitude score (2 hr): 0
MADRS Pessimistic Thoughts improvement (2 hr): 4
MADRS Pessimistic Thoughts score (2 hr): 0
MADRS Reported sadness improvement (2 hr): 4
MADRS Reported sadness score (2 hr): 0
MADRS Apparent sadness improvement (2 hr, baseline 5): 5
MADRS Apparent sadness score (2 hr, baseline 5): 0
MADRS Inner Tension improvement (2 hr, baseline 5): 5
MADRS Inner Tension score (2 hr, baseline 5): 0
MADRS Reduced Sleep improvement (2 hr, baseline 5): 0
MADRS Reduced Sleep score (2 hr, baseline 5): 5
MADRS Concentration Difficulties improvement (Day 1): 0
MADRS Concentration Difficulties score (Day 1): 0
MADRS Reduced appetite improvement (Day 1): 0
MADRS Reduced appetite score (Day 1): 0
MADRS Suicidal Thoughts improvement (Day 1): 0
MADRS Suicidal Thoughts score (Day 1): 0
BPRS Blunted affect improvement (Day 1, baseline 1): 0
BPRS Blunted affect score (Day 1, baseline 1): 1
BPRS Conceptual disorganization improvement (Day 1, baseline 1): 0
BPRS Conceptual disorganization score (Day 1, baseline 1): 1
BPRS Disorientation improvement (Day 1, baseline 1): 0
BPRS Disorientation score (Day 1, baseline 1): 1
BPRS Grandiosity improvement (Day 1, baseline 1): 0
BPRS Grandiosity score (Day 1, baseline 1): 1
BPRS Hallucinatory behaviour improvement (Day 1, baseline 1): 0
BPRS Hallucinatory behaviour score (Day 1, baseline 1): 1
BPRS Hostility improvement (Day 1, baseline 1): 0
BPRS Hostility score (Day 1, baseline 1): 1
BPRS Mannerisms and Posturing improvement (Day 1, baseline 1): 0
BPRS Mannerisms and Posturing score (Day 1, baseline 1): 1
BPRS Motor retardation improvement (Day 1, baseline 1): 0
BPRS Motor retardation score (Day 1, baseline 1): 1
BPRS Suspiciousness improvement (Day 1, baseline 1): 0
BPRS Suspiciousness score (Day 1, baseline 1): 1
BPRS Uncooperativeness improvement (Day 1, baseline 1): 0
BPRS Uncooperativeness score (Day 1, baseline 1): 1
BPRS Unusual Thought Content improvement (Day 1, baseline 1): 0
BPRS Unusual Thought Content score (Day 1, baseline 1): 1
BPRS Excitement improvement (Day 1, baseline 2): 1
BPRS Excitement score (Day 1, baseline 2): 1
MADRS Inability to Feel improvement (Day 1): 3
MADRS Inability to Feel score (Day 1): 0
MADRS Lassitude improvement (Day 1): 3
MADRS Lassitude score (Day 1): 0
MADRS Pessimistic Thoughts improvement (Day 1): 4
MADRS Pessimistic Thoughts score (Day 1): 0
MADRS Reported sadness improvement (Day 1): 4
MADRS Reported sadness score (Day 1): 0
BPRS Emotional withdrawal improvement (Day 1, baseline 5): 4
BPRS Emotional withdrawal score (Day 1, baseline 5): 1
MADRS Apparent sadness improvement (Day 1, baseline 5): 5
MADRS Apparent sadness score (Day 1, baseline 5): 0
MADRS Inner Tension improvement (Day 1, baseline 5): 5
MADRS Inner Tension score (Day 1, baseline 5): 0
MADRS Reduced Sleep improvement (Day 1, baseline 5): 5
MADRS Reduced Sleep score (Day 1, baseline 5): 0
BPRS Depressive Mood improvement (Day 1, baseline 6): 5
BPRS Depressive Mood score (Day 1, baseline 6): 1
BPRS Guilt feelings improvement (Day 1, baseline 6): 5
BPRS Guilt feelings score (Day 1, baseline 6): 1
BPRS Somatic Concern improvement (Day 1, baseline 6): 5
BPRS Somatic Concern score (Day 1, baseline 6): 1
BPRS Tension score (Day 1, baseline 6): 1
BPRS Anxiety improvement (Day 1, baseline 7): 6
BPRS Anxiety score (Day 1, baseline 7): 1
BIMF item 2 (I feel rested) score (Day 7, Day 0 score 0): 2
BIMF item 19 (getting better at taking care of my baby) score (Day 7, Day 0 score 0): 1
BIMF item 18 (Anxiety or worry often interferes with my mothering ability) score (Day 7, Day 0 score 2): 5
BIMF item 16 (I worry about how other people judge me (as a mother)) score (Day 7, Day 0 score 3): 5
BIMF item 13 (taking good care of my physical needs) score (Day 7, Day 0 score 4): 5
BIMF item 4 (My baby and I understand each other) score (Day 7, Day 0 score 5): 5
BIMF item 5 (able to relax and enjoy time with my baby) score (Day 7, Day 0 score 5): 6
BIMF item 9 (getting enough encouragement from other people) score (Day 7, Day 0 score 5): 6
BIMF item 10 (I trust my own feelings (instincts) when taking care of my baby) score (Day 7, Day 0 score 5): 6
BIMF item 11 (I take a little time each week to do something for myself) score (Day 7, Day 0 score 5): 6
BIMF item 15 (My baby and I are getting into a routine) score (Day 7, Day 0 score 5): 6
BIMF item 17 (able to take care of my baby and my other responsibilities) score (Day 7, Day 0 score 5): 5
BIMF item 1 (I am a good mother) score (Day 7, Day 0 score 6): 6
BIMF item 3 (comfortable with the way I've chosen to feed my baby) score (Day 7, Day 0 score 6): 6
BIMF item 6 (people I can trust to care for my baby when I need a break) score (Day 7, Day 0 score 6): 6
BIMF item 8 (getting enough adult interaction) score (Day 7, Day 0 score 6): 6
BIMF item 12 (taking good care of my baby's physical needs) score (Day 7, Day 0 score 6): 6
BIMF item 14 (good decisions about my baby's health and well being) score (Day 7, Day 0 score 6): 6
BIMF item 20 (satisfied with the job I am doing as a new mother) score (Day 7, Day 0 score 6): 5
MADRS Concentration Difficulties improvement (Day 7): 0
MADRS Concentration Difficulties score (Day 7): 0
MADRS Reduced appetite improvement (Day 7): 0
MADRS Reduced appetite score (Day 7): 0
